Laboratory results: US20110124609A1, “Method of Preventing Type I Diabetes” (Wisconsin Alumni Research Foundation, priority 2009, published 2011)
Entries after “also recorded” stand apart in the source; their conditions may differ.

Columns and labels:
NOD mice [1] = experiment: 2AMD Type 1 Diabetes Prevention Study: diabetes incidence in NOD mice; assay type: in vivo, mouse; settings: female NOD mice
Method: Diet. Breeding pairs were fed LabDiet™ Mouse Diet 5010 ad libitum (PMI Nutrition International, St. Louis, Mo.). Experimental mice were fed LabDiet™ Mouse Diet 5K52 meal form (PMI Nutrition International, St. Louis, Mo.). […] At eight weeks of age, mice were placed on 1 of 4 experimental diets: 1) chow, 2) 5010+50 ng 1,25(OH)2D3, or 3) 5010+200 pg and 4) 5010+300 pg 2AMD. In diets/treatments containing 1,25(OH)2D3 or 2AMD, the hormone was added to 1% Wesson® oil and mixed into the diet.
(§1) Evaluation of Diabetic Status. […] Whole blood was centrifuged to obtain serum.

[2] = 2AMD study: serum calcium analysis (atomic absorption); assay type: in vivo, mouse; settings: 200 pg and 300 pg 2AMD per day in diet; NOD mice; over 30 weeks (FIG. 2)
Description: Diet. Breeding pairs were fed LabDiet™ Mouse Diet 5010 ad libitum (PMI Nutrition International, St. Louis, Mo.). Experimental mice were fed LabDiet™ Mouse Diet 5K52 meal form (PMI Nutrition International, St. Louis, Mo.). […] Serum Calcium Analysis. Blood was collected from maxillary cheek of each mouse weekly from 8 weeks to 200 days of age.

[3] = 2AMD study: body weight of NOD mice; assay type: in vivo, mouse; settings: 200 pg and 300 pg 2AMD per day in diet, over 200 days (FIG. 3)
Description: Diet. Breeding pairs were fed LabDiet™ Mouse Diet 5010 ad libitum (PMI Nutrition International, St. Louis, Mo.). Experimental mice were fed LabDiet™ Mouse Diet 5K52 meal form (PMI Nutrition International, St. Louis, Mo.). […] Evaluation of Diabetic Status. […] Whole blood was centrifuged to obtain serum.

NOD mice [4] = experiment: 2MD Type 1 Diabetes Prevention Study: diabetes incidence in NOD mice; assay type: in vivo, mouse; settings: for Incidence of Type 1 Diabetes: female NOD mice
Description: as §1

[5] = 2MD study: body weight of NOD mice; settings: for Weights: mean, n = 12, in g (unit assumed)
Method: Diet. […] At eight weeks of age, mice were then provided 1 of 4 experimental diets: diet 11 only or diet 11+50 ng 1,25(OH)2D3, diet 11 plus 400 ng 2 MP or diet 11+500 pg 2MD. All purified diets were supplemented with vegetable oil containing fat soluble vitamins A, E, D and K (Suda et al., 1970, J. Nutr. 100: 1049-1052 [diet 11]). In diets containing 1,25(OH)2D3, 2 MP or 2MD, the compounds were added to 1% Wesson® oil and mixed into the purified diet. Diets were fed in agar form (Hayes et al., 1987, J. Nutr. 117:857-865) at 3.5 g food/mouse/day and were replaced three times per week.
Evaluation of Diabetic Status. All experimental mice were weighed weekly and urinalysis was performed weekly starting at 10 weeks of age—Diastix® (Bayer, Elkhart, Ind.) were used to determine glucose levels. If a Diastix® reading was above 1000 mg/dl, the mice were bled from maxillary cheek following a four-hour fast. Whole blood was centrifuged to obtain serum. Concentration of glucose in serum was measured using a enzymatic-colorimetric assay (Glucose Liquicolor®, Stanbio Laboratory, Boerne, Tex.) followed by spectrophotometric analysis. Animals that had two fasting glucose analysis above 300 mg/dl were diagnosed as diabetic and sacrificed via CO2 asphyxiation.

[6] = 2MD study: serum calcium analysis (atomic absorption); settings: for serum calcium: NOD mice; for Serum Calcium Levels: mean, n = 12, in mg/dL (unit assumed)
Method: Diet. […] Female pups were weaned at three weeks and placed immediately on a purified diet (Suda et al., 1974, J. Nutr. 100: 1049-1052). At eight weeks of age, mice were then provided 1 of 4 experimental diets: diet 11 only or diet 11+50 ng 1,25(OH)2D3, diet 11 plus 400 ng 2 MP or diet 11+500 pg 2MD. All purified diets were supplemented with vegetable oil containing fat soluble vitamins A, E, D and K (Suda et al., 1970, J. Nutr. 100: 1049-1052 [diet 11]). In diets containing 1,25(OH)2D3, 2 MP or 2MD, the compounds were added to 1% Wesson® oil and mixed into the purified diet. Diets were fed in agar form (Hayes et al., 1987, J. Nutr. 117:857-865) at 3.5 g food/mouse/day and were replaced three times per week.
Serum Calcium Analysis. Blood was collected from maxillary cheek of each mouse at 6, 8, 9, 14.3, 15.3 and 28.6 weeks of age. Serum was separated by centrifugation and diluted 1:40 in a 0.1% LaCl2 solution. Calcium concentration was determined by atomic absorption spectrometry (Spectrometer 3110®, Perkin Elmer, Norwalk, Conn.).

cellular differentiation = settings: background, 19-nor-analogs; cited from earlier work
[7] = background, 19-nor-analogs; cited from earlier work
NOD mouse = settings: of 1,25-(OH)2D3, Zella et al., 2003; cited from earlier work
[8] = Group 10, 400 ng 2MP, age 6 weeks
[9] = Group 10, 400 ng 2MP, age 8 weeks
[10] = Group 10, 400 ng 2MP, age 9 weeks
[11] = Group 10, 400 ng 2MP, age 14.3 weeks
[12] = Group 10, 400 ng 2MP, age 15.3 weeks
[13] = Group 10, 400 ng 2MP, age 28.6 weeks
[14] = Group 8, 0.5 ng 2MD, age 6 weeks
[15] = Group 8, 0.5 ng 2MD, age 8 weeks
[16] = Group 8, 0.5 ng 2MD, age 9 weeks
[17] = Group 8, 0.5 ng 2MD, age 14.3 weeks
[18] = Group 8, 0.5 ng 2MD, age 15.3 weeks
[19] = Group 8, 0.5 ng 2MD, age 28.6 weeks

## 2α-methyl-19-nor-20(S)-1α,25-dihydroxyvitamin D3 [2AMD]
NOD mice [1]; 200 pg and 300 pg 2AMD daily in diet, versus no treatment
  diabetes incidence at 200 days (FIG. 1): statistically significant reduced incidence of diabetes
NOD mice [1]; 200 pg and 300 pg 2AMD per day in 5010 diet, from 8 weeks to 200 days of age
  Type 1 diabetes disease incidence: 8%
[2]
  serum calcium / hypercalcemia: no statistically significant increase in serum calcium; also recorded: without hypercalcemia
[3]
  body weight: no statistically significant change in body weight; also recorded: not altered

## C=C1C(O)CC(=CC=C2CCCC3(C)C2CCC3C(C)C)CC1O (stereo not drawn) [2MP, 1α-hydroxy-2-methylene-19-nor-homopregnacalciferol, reference compound]
NOD mice [4]; 400 ng 2 MP per day in diet 11, NOD mice
  protection against diabetes: no protection against diabetes
NOD mice [4]; 400 ng per day in diet 11, 200 days, n = 12
  Incidence of Type 1 Diabetes: 33.0%
[5]; Group 10, 400 ng 2MP, age 3 weeks
  Weights: 13.60
[5]; [8]
  Weights: 22.03
[5]; [9]
  Weights: 23.74
[5]; [10]
  Weights: 24.63
[5]; [11]
  Weights: 26.30
[5]; [12]
  Weights: 26.81
[5]; [13]
  Weights: 27.64
[6]; 400 ng 2 MP per day in diet 11
  serum calcium: moderate elevation of calcium
[6]; [8]
  Serum Calcium Levels: 11.57
[6]; [9]
  Serum Calcium Levels: 11.57
[6]; [10]
  Serum Calcium Levels: 11.55
[6]; [11]
  Serum Calcium Levels: 11.62
[6]; [12]
  Serum Calcium Levels: 11.77
[6]; [13]
  Serum Calcium Levels: 11.66

## C=C1[C@H](O)CC(=C/C=C2\CCC[C@@]3(C)C2CCC3[C@@H](C)CCCC(C)(C)O)C[C@H]1O (stereo partly drawn) [2MD, 2-methylene-19-nor-20(S)-1,25-dihydroxyvitamin D3]
NOD mice [4]; 0.5 ng per day in diet 11, 200 days, n = 12
  Incidence of Type 1 Diabetes: 0.0%
NOD mice [4]; 0.5 ng/day 2MD in diet 11, NOD mice, 200 days
  prevention of diabetes / diabetes incidence (FIG. 4): statistically significant reduced incidence of diabetes; also recorded: prevented diabetes
[5]; 0.5 ng 2MD per day in diet 11, NOD mice, over 200 days
  body weight (FIG. 5): no statistically significant change in body weight
[5]; Group 8, 0.5 ng 2MD, age 3 weeks
  Weights: 13.33
[5]; [14]
  Weights: 21.87
[5]; [15]
  Weights: 23.78
[5]; [16]
  Weights: 24.94
[5]; [17]
  Weights: 27.85
[5]; [18]
  Weights: 27.82
[5]; [19]
  Weights: 29.51
[6]; 0.5 ng 2MD per day in diet 11, over 30 weeks (FIG. 6)
  serum calcium: no statistically significant increase in serum calcium; also recorded: moderate elevation of calcium
[6]; [14]
  Serum Calcium Levels: 11.42
[6]; [15]
  Serum Calcium Levels: 11.45
[6]; [16]
  Serum Calcium Levels: 11.55
[6]; [17]
  Serum Calcium Levels: 11.52
[6]; [18]
  Serum Calcium Levels: 11.33
[6]; [19]
  Serum Calcium Levels: 11.37

## C[C@H](CCCC(C)(C)O)[C@H]1CC[C@H]2/C(=C/C=C3C[C@@H](O)C[C@H](O)C3)CCC[C@]12C [1α,25-dihydroxy-19-nor-vitamin D3]
Cellular differentiation
  potency for inducing cellular differentiation: high potency
[7]
  calcium mobilizing activity: very low calcium mobilizing activity

## C=C1/C(=C\C=C2/CCC[C@]3(C)[C@@H]([C@H](C)CCCC(C)(C)O)CC[C@@H]23)C[C@@H](O)C[C@@H]1O [1,25(OH)2D3, 1α,25-dihydroxy-vitamin D3]
NOD mice [1]; 50 ng 1,25(OH)2D3 per day in 5010 diet
  protection against T1DM: completely protected
NOD mice [4]; 50 ng per day in diet 11, 200 days, n = 24
  Incidence of Type 1 Diabetes: 4.2%
NOD mice [4]; 50 ng/day 1,25(OH)2D3 in diet 11, NOD mice
  prevention of diabetes: prevented diabetes
NOD mouse
  prevention of Type 1 diabetes: completely prevent Type 1 diabetes
